Patent US20230160878A1, “METHOD OF SCREENING A THERAPY FOR INDUCTION OF FERROPTOSIS” (priority 2020, published 2023)

Legend:
HMOX1 [1] = test: nascent RNA sequencing, transcriptional response to GPX4 inhibitors, HT-1080; type: cell-based; conditions: HT-1080, 1 μM, 1 hour
Protocol: (§1) To assess the transcriptional response of a cell to inhibition of GPX4, we exposed two cell lines to two different chemical inhibitors of GPX4 (ML162 and RSL3; available from Sigma Aldrich and Apex Bio respectively) and examined the transcriptional responses using a nascent RNA sequencing protocol. Briefly, a fibrosarcoma cell line HT-1080 and a lung fibroblast cell line IMR90 were exposed to 1 μM ML162 or 1 μM RSL3 for 1 hour and the nascent RNA sequencing protocol was performed.

HMOX1 [2] = test: nascent RNA sequencing, transcriptional response to GPX4 inhibitors, IMR90; type: cell-based; conditions: IMR90, 1 μM, 1 hour
Protocol: as §1

HMOX1 [3] = test: RT-qPCR of HMOX1 expression in HT-1080 cells; type: cell-based; conditions: for HMOX1 induction with versus without ferrostatin-1: HT-1080, sodium arsenite 80 μM, hemin 5 μM, RSL3 1 μM, with or without 1 μM ferrostatin-1, four hours, normalized to DMSO
Protocol: (§2) To confirm HMOX1 induction by the GPX4 inhibitors, an RT-qPCR assay was performed using three ferroptosis sensitive cancer cell lines: the fibrosarcoma cell line HT-1080, a Ewing's sarcoma cell line A673, and a renal clear cell carcinoma cell line 786-O. Briefly, cells were exposed to 1 μM ML162 or 1 μM RSL3 for 4 hours, RNA was isolated and an RT-qPCR assay was performed.
To further validate induction of HMOX1 mRNA expression by GPX4 inhibition, RT-qPCR was performed using varying doses of the RSL3 inhibitor. Briefly, HT-1080 cells were exposed to 5 μM RSL3, 1 μM RSL3, and 0.2 μM RSL3 for four hours, RNA was isolated and an RT-qPCR assay was performed to quantify HMOX1 expression. DMSO was used as a control exposure.
(§3) Briefly, HT-1080, A673, and 786-O cells were exposed to 1 μM ML162 or 1 μM RLS3 with or without 1 μM ferrostatin-1 for four hours, RNA was isolated and an RT-qPCR assay was performed to quantify HMOX1 expression. DMSO was used as a control exposure.
Sodium arsenite and hemin are known to be inducers of general oxidative stress in cells. Briefly, HT-1080 cells were exposed to sodium arsenite (80 μM), hemin (5 μM), ML162 (1 μM), or RSL3 (1 μM) with or without 1 μM ferrostatin-1 for four hours, RNA was isolated and an RT-qPCR assay was performed to quantify HMOX1 expression. DMSO was used as a control exposure.

HMOX1 [4] = test: RT-qPCR of HMOX1 expression in A673 cells; type: cell-based; conditions: A673, 1 μM; for relative expression of HMOX1 in absence of ferrostatin-1: four hours, relative to ACTB
Protocol: as §2, §3

HMOX1 [5] = test: RT-qPCR of HMOX1 expression in 786-O cells; type: cell-based; conditions: 1 μM; for relative expression of HMOX1 in absence of ferrostatin-1: four hours, relative to ACTB
Protocol: as §2, §3

HMOX1 [6] = test: RT-qPCR rescue of GPX4 inhibitor-mediated HMOX1 induction by ferrostatin-1 (HT-1080, A673 and 786-O pooled statement); type: cell-based; conditions: 1 μM ferrostatin-1 with 1 μM ML162 or RSL3, HT-1080, A673, 786-O, four hours
Protocol: as §3

[7] = system: HT-1080, A673, and 786-O cells lines; conditions: ferrostatin-1 added to culture media; HT-1080, A673, 786-O; cited from earlier work
[8] = HT-1080, 1 μM, four hours, relative to ACTB
[9] = 4 hours, normalized to DMSO control, n=2

| Compound | HMOX1 differential expression (nascent transcription) (HMOX1 [1]) | HMOX1 differential expression (nascent transcription) (HMOX1 [2]) | relative expression of HMOX1 in absence of ferrostatin-1 (HMOX1 [3]; [8]) | HMOX1 induction with versus without ferrostatin-1 (HMOX1 [3]) | relative expression of HMOX1 in absence of ferrostatin-1 (HMOX1 [4]) | relative expression of HMOX1 in absence of ferrostatin-1 (HMOX1 [5]) | other results |
| --- | --- | --- | --- | --- | --- | --- | --- |
| COC(=O)c1ccc([C@@H]2c3[nH]c4ccccc4c3C[C@@H](C(=O)OC)N2C(=O)CCl)cc1 [RSL3] | strongly differentially expressed | strongly differentially expressed | HMOX1 expression was observed | dependent on lipid peroxidation | HMOX1 expression was observed | HMOX1 expression was observed | fold induction for HMOX1 mRNA (HMOX1 [3]; HT-1080, 1 μM, 4 hours, normalized to DMSO control, n=2): induced; relative expression level of HMOX1, dose dependence (HMOX1 [3]; HT-1080, 5 μM, 1 μM and 0.2 μM, four hours, relative to ACTB): proportional to the dose; fold induction for HMOX1 mRNA (HMOX1 [4]; [9]): induced; fold induction for HMOX1 mRNA (HMOX1 [5]; [9]): induced |
| CCOC(=O)c1ccc(NC2CCCCC2)c(N)c1 [ferrostatin-1] |  |  |  |  |  |  | effect of ferrostatin-1 on HMOX1 induction by GPX4 inhibitors (HMOX1 [6]): sufficient to prevent induction of HMOX1 in most conditions; cellular viability of cells treated with small molecules that induce lipid peroxidation [7]: rescues cellular viability |
| O=[As]O [sodium arsenite] |  |  |  | not affected by the presence of ferrostatin-1 |  |  |  |
| COc1ccc(N(C(=O)CCl)C(C(=O)NCCc2ccccc2)c2cccs2)cc1Cl (centres unmarked) [ML162] | strongly differentially expressed | strongly differentially expressed | HMOX1 expression was observed |  | HMOX1 expression was observed | HMOX1 expression was observed | relative expression of HMOX1 in presence of ferrostatin-1 (HMOX1 [3]; HT-1080, 1 μM with 1 μM ferrostatin-1, four hours, relative to ACTB): induced HMOX1 even in the presence of ferrostatin-1 |
| hemin |  |  |  | not affected by the presence of ferrostatin-1 |  |  |  |
